Data reported in patent publication US20170121322A1, “BET-PROTEIN INHIBITING 3,4-DIHYDROPYRIDO[2,3-B]PYRAZINONES WITH META-SUBSTITUTED AROMATIC AMINO- OR ETHER GROUPS” (Bayer Pharma Aktiengesellschaft, priority 2014, published 2017).

Key:
[1] = molecular target: T1, BRD4 bromo domain 1 [BRD4(1)] (Homo sapiens, UniProt O60885); experiment: BRD4(1)/acetylated peptide H4 TR-FRET binding assay; conditions: His6-BRD4(1) (aa 67-152) vs acetylated histone H4 peptide
T1 construct: N-terminally His6-tagged BRD4(1) (amino acids 67-152); made in house; host or cells: E. coli
Source text: To assess the BRD4(1) binding strength of the substances described in this application, the ability thereof to inhibit the interaction between BRD4(1) and acetylated histone H4 in a dose-dependent manner was quantified.
For this purpose, a time-resolved fluorescence resonance energy transfer (TR-FRET) assay was used, which measures the binding between N-terminally His6-tagged BRD4(1) (amino acids 67-152) and a synthetic acetylated histone H4 (Ac-H4) peptide with sequence GRGK(Ac)GGK(Ac)GLGK(Ac)GGAK(Ac)RHGSGSK-biotin. The recombinant BRD4(1) protein produced in-house according to Filippakopoulos et al., Cell, 2012, 149:214-231 was expressed in E. coli and purified by means of (Ni-NTA) affinity and (Sephadex G-75) size exclusion chromatography. The Ac-H4 peptide can be purchased, for example, from Biosyntan (Berlin, Germany).
In the assay, typically 11 different concentrations of each substance (0.1 nM, 0.33 nM, 1.1 nM, 3.8 nM, 13 nM, 44 nM, 0.15 μM, 0.51 μM, 1.7 μM, 5.9 μM and 20 μM) were analysed as duplicates on the same microtitre plate. For this purpose, 100-fold concentrated solutions in DMSO were prepared by serial dilutions (1:3.4) of a 2 mM stock solution into a clear, 384-well microtitre plate (Greiner Bio-One, Frickenhausen, Germany). From this, 50 nl were transferred into a black test plate (Greiner Bio-One, Frickenhausen, Germany). The test was started by the addition of 2 μl of a 2.5-fold concentrated BRD4(1) solution (final concentration typically 10 nM in the 5 μl of reaction volume) in aqueous assay buffer [50 mM HEPES pH 7.5, 50 mM sodium chloride (NaCl), 0.25 mM CHAPS and 0.05% serum albumin (BSA)] to the substances in the test plate. This was followed by a 10-minute incubation step at 22° C. for the pre-equilibration of putative complexes between BRD4(1) and the substances. Subsequently, 3 μl of a solution of 1.67 times the concentration (in assay buffer) consisting of Ac-H4 peptide (83.5 nM) and TR-FRET detection reagents [16.7 nM anti-6His-XL665 and 3.34 nM streptavidin cryptate (both from Cisbio Bioassays, Codolet, France), and 668 mM potassium fluoride (KF)] were added.
The mixture was then incubated in the dark at 22° C. for one hour and then at 4° C. for at least 3 hours and for no longer than overnight. The formation of BRD4(1)/Ac-H4 complexes was determined by the measurement of the resonance energy transfer from the streptavidin-Eu cryptate to the anti-6His-XL665 antibody present in the reaction. For this purpose, the fluorescence emission was measured at 620 nm and 665 nm after excitation at 330-350 nm in a TR-FRET measuring instrument, for example a Rubystar or Pherastar (both from BMG Lab Technologies, Offenburg, Germany) or a Viewlux (Perkin-Elmer). The ratio of the emissions at 665 nm and at 622 nm was taken as an indicator of the amount of BRD4(1)/Ac-H4 complexes formed.
The data (ratios) obtained were normalized, with 0% inhibition corresponding to the mean from the measurements for a set of controls (typically 32 data points) in which all the reagents were present. In these, in place of test substances, 50 nl of DMSO (100%) were used. Inhibition of 100% corresponded to the mean from the measurements for a set of controls (typically 32 data points) in which all the reagents except BRD4(1) were present. The IC50 was determined by regression analysis based on a 4-parameter equation (minimum, maximum, IC50, Hill; Y=Max+(Min−Max)/(1+(X/IC50)Hill).

MOLM-13 cells = experiment: Cell proliferation assay MOLM-13, method 1 (alamarBlue); assay type: cell-based; conditions: Homo sapiens, acute myeloid leukaemia cells, 4000 cells/well, 96-well, 96 hours
Experimental: (§1) In accordance with the invention, the ability of the substances to inhibit cell proliferation was determined. Cell viability was determined by means of the alamarBlue® reagent (Invitrogen) in a Victor X3 Multilabel Reader (Perkin Elmer). The excitation wavelength was 530 nm and the emission wavelength […].
The MOLM-13 cells (DSMZ, ACC 554) were seeded at a concentration of 4000 cells/well in 100 μl of growth medium (RPMI1640, 10% FCS) on 96-well microtitre plates (method 1).
(§2) After overnight incubation at 37° C., the fluorescence values (CI values) were determined. Then the plates were treated with various substance dilutions (1E-5 M, 3E-6 M, 1E-6 M, 3E-7 M, 1E-7 M, 3E-8 M, 1E-8 M) and incubated at 37° C. over 96 hours (MOLM-13, B16F10, CHL-1 cells) or 120 hours (MOLP-8 cells). Subsequently, the fluorescence values were determined (CO values). For the data analysis, the CI values were subtracted from the CO values and the results were compared between cells which had been treated with various dilutions of the substance or only with buffer solution. The IC50 values (substance concentration needed for 50% inhibition of cell proliferation) were calculated therefrom.
(§3) The substances were tested in the cell lines in Table 2, which represent the indications specified by way of example: […]

MOLP-8 cells = experiment: Cell proliferation assay MOLP-8 (alamarBlue); assay type: cell-based; conditions: Homo sapiens, multiple myeloma cells, 120 hours
Experimental: as §1
The MOLP-8 cells (DSMZ, ACC 569) were seeded at a concentration of 4000 cells/well in 100 μl of growth medium (RPMI1640, 20% FCS) on 96-well microtitre plates.
as §2, §3

B16F10 cells = experiment: Cell proliferation assay B16F10 (alamarBlue); assay type: cell-based; conditions: Mus musculus, B16-F10, melanoma (BRAF wild-type) cells, 96 hours
Experimental: as §1
The B16F10 cells (ATCC, CRL-6475) were seeded at a concentration of 300-500 cells/well in 100 μl of growth medium (DMEM with phenol red, 10% FCS) on 96-well microtitre plates.
as §2, §3

CHL-1 cells = experiment: Cell proliferation assay CHL-1 (alamarBlue); assay type: cell-based; conditions: Homo sapiens, melanoma (BRAF wild-type) cells, 96 hours
Experimental: as §1
The CHL-1 cells (ATCC, CRL-9446) were seeded at a concentration of 1000 cells/well in 100 μl of growth medium (DMEM with glutamine, 10% FCS) on 96-well microtitre plates.
as §2, §3

| IC50 [1] [nM] | IC50 (MOLM-13 cells) [nM] | IC50 (B16F10 cells) [nM] | SMILES | IC50 (MOLP-8 cells) [nM] | IC50 (CHL-1 cells) [nM] |
| --- | --- | --- | --- | --- | --- |
| 3630 | 368 | 304 | CCOC(=O)N=S(C)(=O)c1cccc(Nc2ccc3c(n2)N(C2CCOCC2)[C@H](C)C(=O)N3C)c1 (mixture of isomers) [Example 10, Ethyl [(3-{[(3R)-1,3-dimethyl-2-oxo-4-(tetrahydro-2H-pyran-4-yl)-1,2,3,4-tetrahydropyrido[2,3-b]pyrazin-6-yl]amino}phenyl)(methyl)oxido-λ^6-sulphanylidene]carbamate] | 281 | 196 |
| 75 | 191 | 285 | C[C@@H]1C(=O)N(C)c2ccc(Nc3cccc(S(C)(=O)=O)c3)nc2N1C1CCOCC1 [Example 1, (3R)-1,3-Dimethyl-6-{[3-(methylsulphonyl)phenyl]amino}-4-(tetrahydro-2H-pyran-4-yl)-3,4-dihydropyrido[2,3-b]pyrazin-2(1H)-one] | 204 | 180 |
| 83 | 238 | 319 | Cc1ccc(S(C)(=O)=O)cc1Nc1ccc2c(n1)N(C1CCOCC1)[C@H](C)C(=O)N2C [Example 2, (3R)-1,3-Dimethyl-6-{[2-methyl-5-(methylsulphonyl)phenyl]amino}-4-(tetrahydro-2H-pyran-4-yl)-3,4-dihydropyrido[2,3-b]pyrazin-2(1H)-one] | 236 | 189 |
| 79 | 175 | 199 | COc1ccc(S(C)(=O)=O)cc1Nc1ccc2c(n1)N(C1CCOCC1)[C@H](C)C(=O)N2C [Example 3, (3R)-6-{[2-Methoxy-5-(methylsulphonyl)phenyl]amino}-1,3-dimethyl-4-(tetrahydro-2H-pyran-4-yl)-3,4-dihydropyrido[2,3-b]pyrazin-2(1H)-one] | 103 | 127 |
| 93 | 289 | 375 | C[C@@H]1C(=O)N(C)c2ccc(Nc3ccc4c(c3)S(=O)(=O)CC4)nc2N1C1CCOCC1 [Example 4, (3R)-6-[(1,1-Dioxido-2,3-dihydro-1-benzothiophen-6-yl)amino]-1,3-dimethyl-4-(tetrahydro-2H-pyran-4-yl)-3,4-dihydropyrido[2,3-b]pyrazin-2(1H)-one] | 221 | 196 |
| 152 | 651 | 611 | C[C@@H]1C(=O)N(C)c2ccc(Nc3cccc(S(C)(=O)=O)c3)nc2N1C1CCCCCC1 [Example 5, (3R)-4-Cycloheptyl-1,3-dimethyl-6-{[3-(methylsulphonyl)phenyl]amino}-3,4-dihydropyrido[2,3-b]pyrazin-2(1H)-one] | 560 | 371 |
| 24 | 89 | 87 | C[C@@H]1C(=O)N(C)c2ccc(Nc3cccc(S(=O)(=O)C4CC4)c3)nc2N1C1CCOCC1 [Example 6, (3R)-6-{[3-(Cyclopropylsulphonyl)phenyl]amino}-1,3-dimethyl-4-(tetrahydro-2H-pyran-4-yl)-3,4-dihydropyrido[2,3-b]pyrazin-2(1H)-one] | 67 | 46 |
| 28 | 111 | 104 | CC(C)S(=O)(=O)c1cccc(Nc2ccc3c(n2)N(C2CCOCC2)[C@H](C)C(=O)N3C)c1 [Example 7, (3R)-6-{[3-(Isopropylsulphonyl)phenyl]amino}-1,3-dimethyl-4-(tetrahydro-2H-pyran-4-yl)-3,4-dihydropyrido[2,3-b]pyrazin-2(1H)-one] | 75 | 51 |
| 23 | 24 | 37 | COc1ccc(S(=O)(=O)C2CC2)cc1Nc1ccc2c(n1)N(C1CCOCC1)[C@H](C)C(=O)N2C [Example 8, (3R)-6-{[5-(Cyclopropylsulphonyl)-2-methoxyphenyl]amino}-1,3-dimethyl-4-(tetrahydro-2H-pyran-4-yl)-3,4-dihydropyrido[2,3-b]pyrazin-2(1H)-one] | 23 | 18 |
| 25 | 42 | 34 | COc1ccc(S(=O)(=O)C(C)C)cc1Nc1ccc2c(n1)N(C1CCOCC1)[C@H](C)C(=O)N2C [Example 9, (3R)-6-{[5-(Isopropylsulphonyl)-2-methoxyphenyl]amino}-1,3-dimethyl-4-(tetrahydro-2H-pyran-4-yl)-3,4-dihydropyrido[2,3-b]pyrazin-2(1H)-one] | 38 | 19 |
| 94 | 188 | 445 | C[C@@H]1C(=O)N(C)c2ccc(Nc3cccc(S(C)(=O)=O)c3)nc2N1C1CCN(C)CC1 [Example 11, (3R)-1,3-Dimethyl-4-(1-methylpiperidin-4-yl)-6-{[3-(methylsulphonyl)phenyl]amino}-3,4-dihydropyrido[2,3-b]pyrazin-2(1H)-one] | 167 | 109 |
| 19 | 20 | 81 | COc1ccc(S(=O)(=O)C2CC2)cc1Nc1ccc2c(n1)N(C1CCN(C)CC1)[C@H](C)C(=O)N2C [Example 12, (3R)-6-{[5-(Cyclopropylsulphonyl)-2-methoxyphenyl]amino}-1,3-dimethyl-4-(1-methylpiperidin-4-yl)-3,4-dihydropyrido[2,3-b]pyrazin-2(1H)-one] | 22 | 13 |
| 16 | 15 | 59 | COc1ccc(S(=O)(=O)C(C)C)cc1Nc1ccc2c(n1)N(C1CCN(C)CC1)[C@H](C)C(=O)N2C [Example 13, (3R)-6-{[5-(Isopropylsulphonyl)-2-methoxyphenyl]amino}-1,3-dimethyl-4-(1-methylpiperidin-4-yl)-3,4-dihydropyrido[2,3-b]pyrazin-2(1H)-one] | 15 | 11 |
